Earlier results, collected in US7604797B2, “Compositions and methods for treating burns” (BioMechanisms Inc., priority 2003, dated 2009).
Where two headings read alike, the source gives them in different places. Where a SMILES comes first, the peptide text is derived from it. Bridges are numbered along the chain shown (N, C = ends). [ ]: non-standard residue; d: D form. The star is where a group is joined. Ileψ(thiazoline)Cys = CC[C@H](C)[C@H](N)C1=N[C@H](C(=O)*)CS1; dOrn = NCCC[C@@H](N)C(=O)O

Legend:
malignant tumors = conditions: for Tumor response in patients: acute lymphocytic leukemia, Burkitt's lymphoma, breast carcinoma, mycosis fungoides, epidermoid head and neck cancer, osteogenic sarcoma; for Toxicity of chemotherapy: partly related to polyglutamate formation
[1] = test system: gram-positive and gram-negative organisms, fungi; conditions: topical use on burns

Compound	Tumor response in patients (malignant tumors)	Toxicity of chemotherapy (malignant tumors)	Benefits: effectiveness against microorganisms [1]	also measured
Nc1nc(N)c2nc(CNc3ccc(C(=O)NC(CCC(=O)O)C(=O)O)cc3)cnc2n1 (stereo not shown) [AMT, 4-amino-4-deoxy-pteroylglutamic acid]	good to excellent tumor response	a variety of toxicities		
CC[C@H](C)[C@H](N)C1=N[C@H](C(=O)N[C@@H](CC(C)C)C(=O)N[C@H](CCC(=O)O)C(=O)N[C@H](C(=O)N[C@H]2CCCCNC(=O)[C@H](CC(N)=O)NC(=O)[C@@H](CC(=O)O)NC(=O)[C@H](Cc3cnc[nH]3)NC(=O)[C@@H](Cc3ccccc3)NC(=O)[C@H]([C@@H](C)CC)NC(=O)[C@@H](CCCN)NC2=O)[C@@H](C)CC)CS1 [Bacitracin] ({Ileψ(thiazoline)Cys}-L[dE]IK[dOrn]I[dF]H[dD]N; lactam 4-C)			Effective against gram-	Toxicity and adverse effects in use (burn patients; in vivo): Safe, non-toxic
CN(Cc1cnc2nc(N)nc(N)c2n1)c1ccc(C(=O)NC(CCC(=O)O)C(=O)O)cc1 (stereo not shown) [MTX, 4-amino-4-deoxy-N^10-methyl-pteroylglutamic acid]	good to excellent tumor response	a variety of toxicities		
C[C@@H]1[C@H](O)[C@@H](C)/C=C/C=C/CC/C=C/C=C/C=C/C=C/C(O[C@H]2O[C@H](C)[C@@H](O)[C@H](N)[C@@H]2O)CC2O[C@](O)(CC(O)C(O)CCC(O)CC(O)CC(O)CC(=O)O[C@H]1C)CC(O)C2C(=O)O (stereo partly shown) [Nystatin]			Effective against the most	
Neomycin			Particularly effective	
Polymyxin B Sulfate			Effective agains gram-	Toxicity and adverse effects in use (burn patients; topical use on burns): microorganisms. Non-toxic
